From patent US20230203043A1, “NOVEL IMIDAZOPYRAZINE DERIVATIVES” (Hoffmann-La Roche Inc., priority 2020, published 2023) come the findings set out here.

By IC90 is commonly meant the concentration needed for an effect of 90%.

Structures can show the parent of a compound that is named as a salt.

The test system of the first assay is Acinetobacter baumannii ATCC17961. Description: Antimicrobial susceptibility testing: 90% growth inhibitory concentration (IC90) determination in Iso-Sensitest broth, OD600 growth. As to conditions: Acinetobacter baumannii, ATCC17961, 16 h, read-out: A. baumannii ATCC 17961 IC90 (uM), strain ATCC 17961, OD600 growth over 16 h. The format is cell-based. The method, boiled down: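 OD600 read every 20 min for 16 h at 35±2° C; inhibition taken in log phase to derive IC90. Twofold, 10-point dilutions (e.g. 50–0.097 μM final), inoculum ~5×10^(5) CFU/ml.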
In the case of `CCc1cc(Nc2nccn3c(-c4cn(CC(F)F)nc4C(F)(F)F)cnc23)ccc1C(=O)NCC(=O)NCCN(C)C` [Example 668, 4-[[3-[1-(2,2-difluoroethyl)-3-(trifluoromethyl)pyrazol-4-yl]imidazo[1,2-a]pyrazin-8-yl]amino]-N-[2-[2-(dimethylamino)ethylamino]-2-oxo-ethyl]-2-ethyl-benzamide formate], the IC90 is 0.294 µM.

In the case of `CCc1cc(Nc2nccn3c(-c4cn(CC(F)F)nc4C(F)(F)F)cnc23)ccc1C(=O)N1CCC2(CNC2)C1` [Example 555, (4-((3-(1-(2,2-difluoroethyl)-3-(trifluoromethyl)-1H-pyrazol-4-yl)imidazo[1,2-a]pyrazin-8-yl)amino)-2-ethylphenyl)(2,6-diazaspiro[3.4]octan-6-yl)methanone formate], the 90% effect concentration (IC90) stood at 0.977 µM.

For `N#CCn1cc(-c2cnc3c(Nc4ccc(C(=O)N5CCN(CC(=O)NCCN)CC5)c(Cl)c4)nccn23)c(C(F)(F)F)n1` [Example 602, N-(2-aminoethyl)-2-(4-(2-chloro-4-((3-(1-(cyanomethyl)-3-(trifluoromethyl)-1H-pyrazol-4-yl)imidazo[1,2-a]pyrazin-8-yl)amino)benzoyl)piperazin-1-yl)acetamide formate], the IC90 turned out to be 0.448 µM.

For the molecule `CCc1cc(Nc2nccn3c(-c4cn(CC#N)nc4C(F)(F)F)cnc23)ccc1C(=O)NCCCNC(=O)[C@H](C)N` [Example 794, (S)-N-(3-(2-aminopropanamido)propyl)-4-((3-(1-(cyanomethyl)-3-(trifluoromethyl)-1H-pyrazol-4-yl)imidazo[1,2-a]pyrazin-8-yl)amino)-2-ethylbenzamide formate], the 90% effect concentration (IC90) came to 2.2 µM.

For the molecule `CCc1cc(Nc2nccn3c(-c4cn(CCF)nc4C(F)(F)F)cnc23)ccc1C(=O)NCCOCCN` [Example 301, N-[2-(2-aminoethoxy)ethyl]-2-ethyl-4-[[3-[1-(2-fluoroethyl)-3-(trifluoromethyl)pyrazol-4-yl]imidazo[1,2-a]pyrazin-8-yl]amino]benzamide formate], the IC90 was determined as 0.164 µM.

As for `CCc1cc(Nc2nccn3c(-c4cn(CC(F)F)nc4C(F)(F)F)cnc23)ccc1C(=O)N1CC2(CCN2)C1` [Example 564, (4-((3-(1-(2,2-difluoroethyl)-3-(trifluoromethyl)-1H-pyrazol-4-yl)imidazo[1,2-a]pyrazin-8-yl)amino)-2-ethylphenyl)(1,6-diazaspiro[3.3]heptan-6-yl)methanone formate], the IC90 worked out at 0.58 µM.

With `CCc1cc(Nc2nccn3c(-c4cn(CC(N)=O)nc4C(F)(F)F)cnc23)ccc1C(=O)NCCOCCN` [Example 316, N-[2-(2-aminoethoxy)ethyl]-4-[[3-[1-(2-amino-2-oxoethyl)-3-(trifluoromethyl)pyrazol-4-yl]imidazo[1,2-a]pyrazin-8-yl]amino]-2-ethylbenzamide formate], the IC90 came out at 1.52 µM.

Regarding `CN(C)CCNC(=O)CNC(=O)c1ccc(Nc2nccn3c(-c4cn(CC#N)nc4C(F)(F)F)cnc23)cc1Cl` [Example 693, 2-chloro-4-[[3-[1-(cyanomethyl)-3-(trifluoromethyl)pyrazol-4-yl]imidazo[1,2-a]pyrazin-8-yl]amino]-N-[2-[2-(dimethylamino)ethylamino]-2-oxo-ethyl]benzamide formate], the 90% effect concentration (IC90) is 0.358 µM.

Take `CCc1cc(Nc2nccn3c(-c4cn(C(C)C#N)nc4C(F)(F)F)cnc23)ccc1C(=O)NCCOCCN1CCCC1` (stereo not shown) [Example 645, 4-((3-(1-(1-cyanoethyl)-3-(trifluoromethyl)-1H-pyrazol-4-yl)imidazo[1,2-a]pyrazin-8-yl)amino)-2-ethyl-N-(2-(2-(pyrrolidin-1-yl)ethoxy)ethyl)benzamide formate]: the IC90 worked out at 0.242 µM.

For `Cc1cnc(Cn2cc(-c3cnc4c(Nc5ccc(C(=O)N6CCNCC6)c(Cl)c5)nccn34)c(C(F)(F)F)n2)nc1` [Example 160, [2-chloro-4-[[3-[1-[(5-methylpyrimidin-2-yl)methyl]-3-(trifluoromethyl)pyrazol-4-yl]imidazo[1,2-a]pyrazin-8-yl]amino]phenyl]-piperazin-1-ylmethanone formate], the 90% effect concentration (IC90) amounted to 0.63 µM.

In the case of `Cc1cc(Nc2nccn3c(-c4cn(C)nc4C(F)(F)F)cnc23)ccc1C(=O)N1CCN(C(=O)[C@@H]2C[C@@H](O)CN2)CC1` [Example 473, formic acid; [4-[(2S,4R)-4-hydroxypyrrolidine-2-carbonyl]piperazin-1-yl]-[2-methyl-4-[[3-[1-methyl-3-(trifluoromethyl)pyrazol-4-yl]imidazo[1,2-a]pyrazin-8-yl]amino]phenyl]methanone], the IC90 was 1.29 µM.

On to `CCc1cc(Nc2nccn3c(-c4cn(CC(F)F)nc4C(F)(F)F)cnc23)ccc1C(=O)NCCOCCN1CCOCC1` [Example 717, 4-((3-(1-(2,2-difluoroethyl)-3-(trifluoromethyl)-1H-pyrazol-4-yl)imidazo[1,2-a]pyrazin-8-yl)amino)-2-ethyl-N-(2-(2-morpholinoethoxy)ethyl)benzamide formate], for which the concentration for an effect of 90% (IC90) came out at 0.434 µM.

The same assay, now with this note: Acinetobacter baumannii, ATCC17961, 16 h, strain ATCC 17961, OD600 growth over 16 h, read-out: A. baumannii ATCC 17961 IC90.
`Cc1cc(Nc2nccn3c(-c4cn(CCF)nc4C(F)(F)F)cnc23)ccc1C(=O)NCCOCCN` [Example 253, N-[2-(2-aminoethoxy)ethyl]-4-[[3-[1-(2-fluoroethyl)-3-(trifluoromethyl)pyrazol-4-yl]imidazo[1,2-a]pyrazin-8-yl]amino]-2-methylbenzamide]: the IC90 turned out to be 0.198 µM.

As to `C#CCn1cc(-c2cnc3c(Nc4ccc(C(=O)NCCOCCN)c(CC)c4)nccn23)c(C(F)F)n1` [Example 123, N-[2-(2-aminoethoxy)ethyl]-4-[[3-[3-(difluoromethyl)-1-prop-2-ynylpyrazol-4-yl]imidazo[1,2-a]pyrazin-8-yl]amino]-2-ethylbenzamide], the concentration for an effect of 90% (IC90) was 0.209 µM.

Regarding `CCc1cc(Nc2nccn3c(-c4cn(CC(F)F)nc4C(F)F)cnc23)ccc1C(=O)N1CCN(C(=O)CN)CC1` [Example 766, 2-amino-1-(4-(4-((3-(1-(2,2-difluoroethyl)-3-(difluoromethyl)-1H-pyrazol-4-yl)imidazo[1,2-a]pyrazin-8-yl)amino)-2-ethylbenzoyl)piperazin-1-yl)ethan-1-one], the IC90 was 0.903 µM.

Turning to `N#CCn1cc(-c2cnc3c(Nc4ccc(C(=O)NCCOCCN)c(Cl)c4)nccn23)c(C(F)(F)F)n1` [Example 257, N-[2-(2-aminoethoxy)ethyl]-2-chloro-4-[[3-[1-(cyanomethyl)-3-(trifluoromethyl)pyrazol-4-yl]imidazo[1,2-a]pyrazin-8-yl]amino]benzamide], the concentration for an effect of 90% (IC90) was determined as 0.37 µM.

In the case of `Cc1cc(Nc2nccn3c(-c4c[nH]nc4C(F)(F)F)cnc23)ccc1S(C)(=O)=NCCCN` (stereo not drawn) [Example 518, ((3-Aminopropyl)imino)(methyl)(2-methyl-4-((3-(3-(trifluoromethyl)-1H-pyrazol-4-yl)imidazo[1,2-α]pyrazin-8-yl)amino)phenyl)-λ^6-sulfanone], the IC90 worked out at 0.935 µM.

As to `NCC(=O)N1CCN(C(=O)c2ccc(Nc3nccn4c(-c5c[nH]nc5C(F)(F)F)cnc34)cc2Cl)CC1` [Example 131, 2-amino-1-[4-[2-chloro-4-[[3-[3-(trifluoromethyl)-1H-pyrazol-4-yl]imidazo[1,2-a]pyrazin-8-yl]amino]benzoyl]piperazin-1-yl]ethanone], the IC90 is 0.117 µM.

For the molecule `C[C@@H](NC(=O)c1ccc(Nc2nccn3c(-c4cn(CC#N)nc4C(F)(F)F)cnc23)cc1Cl)C(=O)N1CC[C@@H](N)C1` [Example 674, N-[(1R)-2-[(3R)-3-aminopyrrolidin-1-yl]-1-methyl-2-oxo-ethyl]-2-chloro-4-[[3-[1-(cyanomethyl)-3-(trifluoromethyl)pyrazol-4-yl]imidazo[1,2-a]pyrazin-8-yl]amino] benzamide formate], the IC90 was found to be 0.315 µM.

`C=CCn1cc(-c2cnc3c(Nc4cc(C)c(C(=O)N[C@H](C)CN)c(F)c4)nccn23)c(C(F)(F)F)n1` [Example 680, (R)-4-((3-(1-allyl-3-(trifluoromethyl)-1H-pyrazol-4-yl)imidazo[1,2-a]pyrazin-8-yl)amino)-N-(1-aminopropan-2-yl)-2-fluoro-6-methylbenzamide]: the IC90 stood at 0.326 µM.

As to `CN(CCN)C(=O)c1ccc(Nc2nccn3c(-c4c[nH]nc4C(F)(F)F)cnc23)cc1Cl` [Example 322, N-(2-aminoethyl)-2-chloro-N-methyl-4-[[3-[3-(trifluoromethyl)-1H-pyrazol-4-yl]imidazo[1,2-a]pyrazin-8-yl]amino]benzamide], the IC90 was 0.97 µM.

With `CCc1cc(Nc2nccn3c(-c4cn(CC(O)C(F)(F)F)nc4C(F)(F)F)cnc23)ccc1C(=O)NCCOCCN` (stereo not shown) [Example 644, N-(2-(2-aminoethoxy)ethyl)-2-ethyl-4-((3-(1-(3,3,3-trifluoro-2-hydroxypropyl)-3-(trifluoromethyl)-1H-pyrazol-4-yl)imidazo [1,2-a]pyrazin-8-yl)amino) benzamide], the IC90 is 0.24 µM.

With `N#CCn1cc(-c2cnc3c(Nc4ccc(C(=O)N5CCN(C(=O)[C@@H]6CCCN6)CC5)c(Cl)c4)nccn23)c(C(F)(F)F)n1` [Example 210, 2-[4-[8-[3-chloro-4-[4-[(2S)-pyrrolidine-2-carbonyl]piperazine-1-carbonyl]anilino]imidazo[1,2-a]pyrazin-3-yl]-3-(trifluoromethyl)pyrazol-1-yl]acetonitrile], the 90% effect concentration (IC90) came to 0.174 µM.

Turning to `N#CCn1cc(-c2cnc3c(Nc4ccc(C(=O)NCC(=O)N5CCNCC5)c(Cl)c4)nccn23)c(C(F)(F)F)n1` [Example 501, 2-chloro-4-[[3-[1-(cyanomethyl)-3-(trifluoromethyl)pyrazol-4-yl]imidazo[1,2-a]pyrazin-8-yl]amino]-N-(2-oxo-2-piperazin-1-yl-ethyl)benzamide formate], the IC90 was found to be 0.224 µM.

`CCc1cc(Nc2nccn3c(-c4cn(CCF)nc4C(F)(F)F)cnc23)ccc1C(=O)NCCOC[C@H](C)N` [Example 158, N-[2-[(2S)-2-aminopropoxy]ethyl]-2-ethyl-4-[[3-[1-(2-fluoroethyl)-3-(trifluoromethyl)pyrazol-4-yl]imidazo[1,2-a]pyrazin-8-yl]amino]benzamide]: the concentration for an effect of 90% (IC90) came to 4.03 µM.
